Laboratory results: patent publication EP0640095B1, “PROCESS FOR MAKING VANCOMYCIN” (ABBOTT LABORATORIES, priority 1992, dated 1993)
Converted amounts (≈) assume the structure as drawn.

Test: Solubility of vancomycin as a function of pH (base crystallization)
Type: physicochemical
Conditions: pH 9; pH of 9.0 to 9.5
Text: Prior to the base crystallization step, the pH of the solution must be optimized to maximize the efficiency of the crystallization. […]

CN[C@H](CC(C)C)C(=O)N[C@H]1C(=O)N[C@@H](CC(N)=O)C(=O)N[C@H]2C(=O)N[C@H]3C(=O)N[C@H](C(=O)N[C@H](C(=O)O)c4cc(O)cc(O)c4-c4cc3ccc4O)[C@H](O)c3ccc(c(Cl)c3)Oc3cc2cc(c3O[C@@H]2O[C@H](CO)[C@@H](O)[C@H](O)[C@H]2O[C@H]2C[C@](C)(N)[C@H](O)[C@H](C)O2)Oc2ccc(cc2Cl)[C@H]1O [vancomycin]
solubility: 5 to 20 mg/mL (≈ 3.45 to 13.8 mM)
